Data as given in BigSolDB 2.1.

OCCOc1ccc2ccccc2c1-c1c(OCCO)ccc2ccccc12
solubility (mole fraction)
Settings | 283.15 K | 288.15 K | 293.15 K | 298.15 K | 303.15 K | 308.15 K | 313.15 K | 318.15 K | 323.15 K
in acetone | 0.00658 | 0.00893 | 0.0121 | 0.0153 | 0.0212 | 0.027 | 0.0352 | 0.0441 | 0.0567
in ethyl acetate | 0.00227 | 0.00328 | 0.00464 | 0.00604 | 0.00802 | 0.0104 | 0.0133 | 0.0174 | 0.0229
in ethyl formate | 0.00207 | 0.00284 | 0.00399 | 0.00539 | 0.00721 | 0.00964 | 0.0123 | 0.0161 | 0.0209
in isobutanol | 0.000512 | 0.000733 | 0.00108 | 0.00147 | 0.00209 | 0.00291 | 0.00388 | 0.005 | 0.00655
in isobutyl acetate | 0.00105 | 0.00158 | 0.0022 | 0.00296 | 0.00396 | 0.00518 | 0.00692 | 0.00911 | 0.0117
in isopropanol | 0.000762 | 0.00102 | 0.00132 | 0.00187 | 0.00263 | 0.00351 | 0.00487 | 0.00649 | 0.00847
in methyl acetate | 0.00297 | 0.00423 | 0.00595 | 0.00778 | 0.0102 | 0.0137 | 0.0173 | 0.0218 | 0.0292
in n-butanol | 0.000873 | 0.00119 | 0.00168 | 0.00242 | 0.00317 | 0.00428 | 0.0058 | 0.00782 | 0.0109
in n-butyl acetate | 0.00136 | 0.00186 | 0.00286 | 0.00389 | 0.00486 | 0.00646 | 0.0086 | 0.0108 | 0.0144
in n-pentanol | 0.000827 | 0.00116 | 0.00163 | 0.00227 | 0.00303 | 0.00413 | 0.00551 | 0.00725 | 0.00966
in n-propanol | 0.00111 | 0.00143 | 0.00189 | 0.00268 | 0.00369 | 0.00494 | 0.00644 | 0.00847 | 0.012
in toluene | 0.000885 | 0.00122 | 0.00176 | 0.0025 | 0.00331 | 0.00447 | 0.00595 | 0.00794 | 0.0104
